Where no end group is shown, it is not given here. KLH = keyhole limpet hemocyanin carrier protein

Data set [1] in a line: Rabbit immunization with BFA5 peptides, serum IgG titer. Type of data set: in vivo. The conditions noted are these: for IgG titer × 10^5 (After first Immunization Rb1/Rb2): after first immunization (peptide in FCA); for IgG titer × 10^5 (After second Immunization Rb1/Rb2): after second immunization (KLH-coupled peptide in FIA). How it is done:
Prebleed samples from rabbits were processed and stored at −20° C. Rabbits were immunized as follows: 1) the peptides were administered as an emulsion with Freund's Complete Adjuvant (FCA); and, 2) two weeks later, the peptides were coupled with Keyhole-Limpet Hemocyanin (KLH)-coupled and administered as an emulsion with Freund's Incomplete Adjuvant FIA.

The test system of another data set is HLA-A*0201 human T cells. The experiment in a line: IFN-γ ELISPOT on human T-cell cultures activated with BFA5 peptides pulsed on autologous dendritic cells. The conditions noted are these: for BFA5 peptides eliciting high IFN-γ release (>200 spots/100,000 cells): a peptide given is positive. Type of data set: cell-based. How it is done: A library of 100 peptides from the BFA5/NYBR-1 coding sequence that are predicted to be medium to high binders to HLA-A*0201 were designed using Rammensee and Parker algorithms. The library was sub-divided into 10 pools of ten peptides (Table III), and each pool was used to activate 10 different T cell cultures after pulsing peptides on to mature autologous dendritic cells.
ELISPOT analysis was performed on human T-cell cultures activated through four rounds of stimulation with each pool of BFA5 peptides. Reactivity against a CMV pp 65 peptide and a Flu matrix peptide were used as positive controls for T-cell activation in the experiments. Each experiment was performed with PBMC and dendritic cells from a single HLA-A*0201^+ donor designated as “AP10”. […] Similar results were obtained for both BFA4 and BFA5/NYBR-1 with a different HLA-A*0201. […] Cultures having a reading of 600 spots have more than this number of spots.
A large number of the BFA5 peptide pools of are reactive as shown by the high levels of IFN-γ production. Each reactive peptide pool was then separated into individual peptides and analyzed for immunogencity using ELISPOT analysis to isolate single reactive BFA5 peptides. BFA5 is highly immunogenic with several reactive single peptides than that of BFA4. Similar results were obtained in two independent PBMC culture experiments.

A further data set relates to peptide-loaded T2 cells. The experiment in a line: 51Cr-release CTL assay of peptide-activated T cells. The note with it: a peptide given is positive.

Protocol for peptide-loaded T2 cells: In addition to ELISPOT analysis, human T cells activated by BFA5 peptides were assayed to determine their ability to function as CTL. The cells were activated using peptide-pulsed dendritic cells followed by CD40 ligand-activated B cells (5 rounds of stimulation). […] Isolated T cells were tested in ^51Cr-release assays using peptide-loaded T2 cells. The % specific lysis at a 10:1, 5:1, and 1:1 T-cell to target ratio is shown for T2 cells pulsed with either pools of BFA5/NYBR-1 peptides or with individual peptides.

Take “KLH-RLTLNQEEEKRRNADILNEKIRE ({KLH}-RLTLNQEEEKRRNADILNEKIRE; listed as Homo sapiens) [CLP 2980]”: the “IgG titer × 10^5 (After first Immunization Rb1/Rb2)” value is 25 × 10^5 in data set [1] (rabbit Rb1) and 12 × 10^5 in data set [1] (rabbit Rb2). The figures for the “IgG titer × 10^5 (After second Immunization Rb1/Rb2)” value in data set [1] (rabbit Rb1) and in data set [1] (rabbit Rb2) were 1024 × 10^5 and 128 × 10^5, respectively.

With “KLH-DEILPSESKQKDYEENSWDTESL ({KLH}-DEILPSESKQKDYEENSWDTESL; listed as Homo sapiens) [CLP 2979]”, in data set [1] (rabbit Rb1), the “IgG titer × 10^5 (After first Immunization Rb1/Rb2)” value is given as 12 × 10^5 and the “IgG titer × 10^5 (After second Immunization Rb1/Rb2)” value was 256 × 10^5. For the same substance, in data set [1] (rabbit Rb2), the “IgG titer × 10^5 (After first Immunization Rb1/Rb2)” value is on record as 25 × 10^5 and the “IgG titer × 10^5 (After second Immunization Rb1/Rb2)” value was 512 × 10^5.

With “9 (SIPTKALEL; listed as Homo sapiens) [compound 9]”, the “BFA5 peptides eliciting high IFN-γ release (>200 spots/100,000 cells)” value in the data set with HLA-A*0201 human T cells (Donor AP10) was “SIPTKALEL”. For the same substance, the “BFA5 peptides inducing CTL lysis of pulsed cells” value (from here on “BFA5 peptides inducing CTL lysis”) in the data set with peptide-loaded T2 cells (Donor AP31) is listed as “SIPTKALEL”.

For “KLH-MTKRKKTINLNIQDAQKRTALHW ({KLH}-MTKRKKTINLNIQDAQKRTALHW; listed as Homo sapiens) [CLP 2977]”, the “IgG titer × 10^5 (After first Immunization Rb1/Rb2)” value in data set [1] (rabbit Rb1) is 25 × 10^5; in data set [1] (rabbit Rb2), 6 × 10^5. Besides, the “IgG titer × 10^5 (After second Immunization Rb1/Rb2)” value in data set [1] (rabbit Rb1) is 256 × 10^5; in data set [1] (rabbit Rb2) it was 64 × 10^5.

Turning to “32 (AVYSEILSV; listed as Homo sapiens) [compound 32]”, the “BFA5 peptides eliciting high IFN-γ release (>200 spots/100,000 cells)” value with HLA-A*0201 human T cells (Donor AP10) is “AVYSEILSV”.

Consider “57 (KSQEPAFHI; listed as Homo sapiens) [compound 57]”, for which the “BFA5 peptides eliciting high IFN-γ release (>200 spots/100,000 cells)” value with HLA-A*0201 human T cells (Donor AP31) is “KSQEPAFHI”.

With “KLH-TSEKFTWPAKGRPRKIAWEKKED ({KLH}-TSEKFTWPAKGRPRKIAWEKKED; listed as Homo sapiens) [CLP 2978]”, in data set [1] (rabbit Rb1), the “IgG titer × 10^5 (After first Immunization Rb1/Rb2)” value is 25/25 × 10^5 and the “IgG titer × 10^5 (After second Immunization Rb1/Rb2)” value is on record as 64 × 10^5. Also, in data set [1] (rabbit Rb2), the “IgG titer × 10^5 (After first Immunization Rb1/Rb2)” value is on record as 25/25 × 10^5 and the “IgG titer × 10^5 (After second Immunization Rb1/Rb2)” value was 256 × 10^5.

In the case of “81 (ILKEKNAEL; listed as Homo sapiens) [compound 81]”, the “BFA5 peptides eliciting high IFN-γ release (>200 spots/100,000 cells)” value in the data set on HLA-A*0201 human T cells (Donor AP10) and in the data set with HLA-A*0201 human T cells (Donor AP31) was “ILKEKNAEL” in each case.

As to “51 (NLNYAGDAL; listed as Homo sapiens) [compound 51]”, the “BFA5 peptides eliciting high IFN-γ release (>200 spots/100,000 cells)” value with HLA-A*0201 human T cells (Donor AP10) and in the data set on HLA-A*0201 human T cells (Donor AP31) was “NLNYAGDAL” throughout.

As for “30 (KVMEINREV; listed as Homo sapiens) [compound 30]”, in the data set with HLA-A*0201 human T cells (Donor AP10), the “BFA5 peptides eliciting high IFN-γ release (>200 spots/100,000 cells)” value is “KVMEINREV”.

Consider “61 (MLKKEIAML; listed as Homo sapiens) [compound 61]”, for which the “BFA5 peptides eliciting high IFN-γ release (>200 spots/100,000 cells)” value with HLA-A*0201 human T cells (Donor AP31) is “MLKKEIAML”.

Regarding “8 (KVSIPTKAL; listed as Homo sapiens) [compound 8]”, the “BFA5 peptides eliciting high IFN-γ release (>200 spots/100,000 cells)” value with HLA-A*0201 human T cells (Donor AP10) is listed as “KVSIPTKAL”. In addition, in the data set with peptide-loaded T2 cells (Donor AP31), the “BFA5 peptides inducing CTL lysis” value is on record as “KVSIPTKAL”.

For “54 (GVTAEHYAV; listed as Homo sapiens) [compound 54]”, the “BFA5 peptides eliciting high IFN-γ release (>200 spots/100,000 cells)” value in the data set with HLA-A*0201 human T cells (Donor AP31) is reported as “GVTAEHYAV”.

On to “59 (MLKLEIATL; listed as Homo sapiens) [compound 59]”, for which the “BFA5 peptides eliciting high IFN-γ release (>200 spots/100,000 cells)” value in the data set on HLA-A*0201 human T cells (Donor AP10) and in the data set with HLA-A*0201 human T cells (Donor AP31) was “MLKLEIATL” in each case. For the same substance, the “BFA5 peptides inducing CTL lysis” value in the data set with peptide-loaded T2 cells (Donor AP31) is reported as “MLKLEIATL”.

With “63 (ALRIQDIEL; listed as Homo sapiens) [compound 63]”, in the data set with HLA-A*0201 human T cells (Donor AP10), the “BFA5 peptides eliciting high IFN-γ release (>200 spots/100,000 cells)” value was “ALRIQDIEL”.

For the substance “85 (KCTALMLAV; listed as Homo sapiens) [compound 85]”, the “BFA5 peptides eliciting high IFN-γ release (>200 spots/100,000 cells)” value in the data set on HLA-A*0201 human T cells (Donor AP10) is “KCTALMLAV”.

As to “72 (SLKINLNYA; listed as Homo sapiens) [compound 72]”, the “BFA5 peptides eliciting high IFN-γ release (>200 spots/100,000 cells)” value in the data set with HLA-A*0201 human T cells (Donor AP10) and in the data set on HLA-A*0201 human T cells (Donor AP31) was “SLKINLNYA” throughout. In the data set with peptide-loaded T2 cells (Donor AP31), the “BFA5 peptides inducing CTL lysis” value is “SLKINLNVA”.

For the substance “77 (AELQMTLKL; listed as Homo sapiens) [compound 77]”, the “BFA5 peptides eliciting high IFN-γ release (>200 spots/100,000 cells)” value with HLA-A*0201 human T cells (Donor AP10) was “AELQMTLKL”. Moreover, the “BFA5 peptides inducing CTL lysis” value in the data set on peptide-loaded T2 cells (Donor AP10) and in the data set on peptide-loaded T2 cells (Donor AP31) was “AELQMTLKL” each time.

Regarding “74 (ATCGMKVSI; listed as Homo sapiens) [compound 74]”, in the data set on HLA-A*0201 human T cells (Donor AP10), the “BFA5 peptides eliciting high IFN-γ release (>200 spots/100,000 cells)” value was “ATCGMKVSI”. In the data set on peptide-loaded T2 cells (Donor AP10), the “BFA5 peptides inducing CTL lysis” value is given as “ATCGMKVSI”.

Turning to “24 (QLQSKNMWL; listed as Homo sapiens) [compound 24]”, the “BFA5 peptides eliciting high IFN-γ release (>200 spots/100,000 cells)” value with HLA-A*0201 human T cells (Donor AP10) and with HLA-A*0201 human T cells (Donor AP31) was “QLQSKNMWL” throughout. Moreover, the “BFA5 peptides inducing CTL lysis” value in the data set with peptide-loaded T2 cells (Donor AP31) is on record as “QLQSKNMWL”.

Regarding “11 (TVSQKDVCL; listed as Homo sapiens) [compound 11]”, in the data set with HLA-A*0201 human T cells (Donor AP10), the “BFA5 peptides eliciting high IFN-γ release (>200 spots/100,000 cells)” value is “TVSQKDVCL”.

As for “28 (SLSKILDTV; listed as Homo sapiens) [compound 28]”, the “BFA5 peptides eliciting high IFN-γ release (>200 spots/100,000 cells)” value in the data set with HLA-A*0201 human T cells (Donor AP10) and in the data set with HLA-A*0201 human T cells (Donor AP31) was “SLSKILDTV” each time. Besides, in the data set with peptide-loaded T2 cells (Donor AP31), the “BFA5 peptides inducing CTL lysis” value was “SLSKILDTV”.

Consider “BFA4: tumor antigen BFA4 (SEQ ID NOS.: 1 and 2), compared with BFA5 in T-cell ELISPOT”, for which the “ELISPOT reactivity (IFN-γ production) of peptide pools” value in the data set with HLA-A*0201 human T cells (four rounds of stimulation, HLA-A*0201+ donor AP10, counts per 100,000 cells) is “markedly reactive”.

In the case of “84 (NLVDVYGNM; listed as Homo sapiens) [compound 84]”, the “BFA5 peptides eliciting high IFN-γ release (>200 spots/100,000 cells)” value in the data set on HLA-A*0201 human T cells (Donor AP10) was “NLVDVYGNM”. In the data set on peptide-loaded T2 cells (Donor AP10), the “BFA5 peptides inducing CTL lysis” value is listed as “NLVDVYGNM”.

Regarding “67 (VLKKKLSEA; listed as Homo sapiens) [compound 67]”, the “BFA5 peptides eliciting high IFN-γ release (>200 spots/100,000 cells)” value with HLA-A*0201 human T cells (Donor AP31) is recorded as “VLKKKLSEA”.

With “49 (SVPNKAFEL; listed as Homo sapiens) [compound 49]”, the “BFA5 peptides eliciting high IFN-γ release (>200 spots/100,000 cells)” value with HLA-A*0201 human T cells (Donor AP10) is on record as “SVPNKAFEL”.

Turning to “12 (SVPNKALEL; listed as Homo sapiens) [compound 12]”, the “BFA5 peptides eliciting high IFN-γ release (>200 spots/100,000 cells)” value with HLA-A*0201 human T cells (Donor AP10) is reported as “SVPNKALEL”.

With “KLH-AENTMLTSKLKEKQDKEILEAEI ({KLH}-AENTMLTSKLKEKQDKEILEAEI; listed as Homo sapiens) [CLP 2981]”, in data set [1] (rabbit Rb1), the “IgG titer × 10^5 (After first Immunization Rb1/Rb2)” value is on record as 8 × 10^5 and the “IgG titer × 10^5 (After second Immunization Rb1/Rb2)” value is reported as 256 × 10^5. Also, in data set [1] (rabbit Rb2), the “IgG titer × 10^5 (After first Immunization Rb1/Rb2)” value is 4 × 10^5 and the “IgG titer × 10^5 (After second Immunization Rb1/Rb2)” value was 64 × 10^5.

As to “KLH-NYNNHLKNRIYQYEKEKAETENS ({KLH}-NYNNHLKNRIYQYEKEKAETENS; listed as Homo sapiens) [CLP 2982]”, in data set [1] (rabbit Rb1), the “IgG titer × 10^5 (After first Immunization Rb1/Rb2)” value is recorded as 2/2 × 10^5 and the “IgG titer × 10^5 (After second Immunization Rb1/Rb2)” value is reported as 64 × 10^5. Also, in data set [1] (rabbit Rb2), the “IgG titer × 10^5 (After first Immunization Rb1/Rb2)” value was 2/2 × 10^5 and the “IgG titer × 10^5 (After second Immunization Rb1/Rb2)” value is given as 32 × 10^5.

Consider “78 (VFAADICGV; listed as Homo sapiens) [compound 78]”, for which, in the data set on HLA-A*0201 human T cells (Donor AP31), the “BFA5 peptides eliciting high IFN-γ release (>200 spots/100,000 cells)” value is reported as “VFAADICGV”.

Take “37 (SLTPLLLSI; listed as Homo sapiens) [compound 37]”: the “BFA5 peptides eliciting high IFN-γ release (>200 spots/100,000 cells)” value with HLA-A*0201 human T cells (Donor AP10) and with HLA-A*0201 human T cells (Donor AP31) was “SLTPLLLSI” throughout. The “BFA5 peptides inducing CTL lysis” value with peptide-loaded T2 cells (Donor AP31) is “SLTPLLLSI”.

(Values after US8021664B2, “Tumor antigens Bfa5 for prevention and/or treatment of cancer” (Sanofi Pasteur Limited, priority 2003, dated 2011).)
